Reference: US8309584B2, “Sulfur containing pyrazole-heterocycle derivatives as cannabinoid CB1 receptor antagonists” (Green Cross Corporation, priority 2008, dated 2012)

Each compound was assayed against T1, rat CB-1 receptor (Rattus norvegicus, UniProt P20272) (assay: rat cannabinoid-1 receptor (CB1R) binding affinity assay). Details: not given.
T1 construct: The tissue obtained from the brain of SD rats was homogenized; from tissue; host or cells: SD rat brain membrane homogenate
Experimental: The tissue obtained from the brain of SD rats was homogenized with a Dounce homogenate system in TME(50 mM Tris, 3 mM MgCl2 and 1 mM EDTA, pH 7.4) at 4° C., and the homogenate was centrifuged at 48,000 g for 30 min. at 4° C. The pellet was resuspended in 5 ml of TME and the suspension was divided into aliquots and stored at −70° C. until its use in the following assay.
The tissue concentrations were determined by Bradford protein analysis, and 148 μl of brain tissue of the required concentration was added to the plate. The plate was covered and placed in a 30° C. incubator for 60 min, and then transformed on GF/B filtermat pretreated in polyethylenimine (PEI) using a cell harvester. Each filter was washed five times and dried at 60° C. for 1 hr. Then, the degree of radioactivity retained by the filter was measured using Wallac Microbeta™ (PerkinElmer Life Sciences, Inc., Massachusetts, U.S.A.) and the activity of the compound for inhibiting CB1 receptor was determined therefrom.

T1 sequence (P20272 whole entry): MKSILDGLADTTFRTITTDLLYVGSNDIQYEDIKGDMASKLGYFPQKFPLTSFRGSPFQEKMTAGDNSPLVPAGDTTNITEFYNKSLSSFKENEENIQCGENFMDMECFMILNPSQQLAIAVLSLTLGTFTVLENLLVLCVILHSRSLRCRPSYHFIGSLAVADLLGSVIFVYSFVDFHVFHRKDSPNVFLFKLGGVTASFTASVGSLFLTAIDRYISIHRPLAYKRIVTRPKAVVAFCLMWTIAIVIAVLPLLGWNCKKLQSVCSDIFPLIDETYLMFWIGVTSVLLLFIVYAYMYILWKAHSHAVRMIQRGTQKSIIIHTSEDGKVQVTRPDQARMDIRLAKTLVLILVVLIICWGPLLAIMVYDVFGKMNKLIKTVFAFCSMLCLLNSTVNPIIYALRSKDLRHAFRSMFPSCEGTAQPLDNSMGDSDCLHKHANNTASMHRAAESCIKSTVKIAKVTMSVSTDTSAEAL

SMILES | IC50 [nM]
CSc1c(-c2nnc(C3(C(F)(F)F)CCC3)s2)nn(-c2ccc(Cl)cc2Cl)c1-c1ccc(Cl)cc1 [Example 23, 2-(5-(4-chlorophenyl)-1-(2,4-dichlorophenyl)-4-(methylthio)-1H-pyrazol-3-yl)-5-(1-(trifluoromethyl)cyclobutyl)-1,3,4-thiadiazole] | 7.31
CSc1c(-c2nnc(C3(C(F)(F)F)CC3)o2)nn(-c2ccccc2Cl)c1-c1ccc(Br)cc1 [Example 14, 2-(5-(4-bromophenyl)-1-(2-chlorophenyl)-4-(methylthio)-1H-pyrazol-3-yl)-5-(1-(trifluoromethyl)cyclopropyl)-1,3,4-oxadiazole] | 4.11

Same assay, conditions: [3H]CP-55940 radioligand, SD rat brain tissue homogenate, 30° C., 60 min; read-out: IC50

SMILES | IC50 [nM]
C[S+]([O-])c1c(-c2nnc(C3(c4ccc(Cl)cc4)CC3)s2)nn(-c2ccc(Cl)cc2Cl)c1-c1ccc(Cl)cc1 (stereo not shown) [Example 63, 2-(5-(4-chlorophenyl)-1-(2,4-dichlorophenyl)-4-(methylsulfinyl)-1H-pyrazol-3-yl)-5-(1-(4-chlorophenyl)cyclopropyl)-1,3,4-thiadiazole] | 11.8
CS(=O)(=O)c1c(-c2nnc(C3(C(F)(F)F)CCC3)s2)nn(-c2ccccc2Cl)c1-c1ccc(Cl)cc1 [Example 106, 2-(1-(2-chlorophenyl)-5-(4-chlorophenyl)-4-(methylsulfonyl)-1H-pyrazol-3-yl)-5-(1-(trifluoromethyl)cyclobutyl)-1,3,4-thiadiazole] | 0.87
CSc1c(-c2nnc(C3(C(F)(F)F)CC3)o2)nn(-c2ccccc2Cl)c1-c1ccc(Cl)cc1 [Example 6, 2-(1-(2-chlorophenyl)-5-(4-chlorophenyl)-4-(methylthio)-1H-pyrazol-3-yl)-5-(1-(trifluoromethyl)cyclopropyl)-1,3,4-oxadiazole] | 8.3
CS(=O)(=O)c1c(-c2nnc(C3(c4ccc(Cl)cc4)CC3)o2)nn(-c2ccc(Cl)cc2Cl)c1-c1ccc(Cl)cc1 [Example 83, 2-(5-(4-chlorophenyl)-1-(2,4-dichlorophenyl)-4-(methylsulfonyl)-1H-pyrazol-3-yl)-5-(1-(4-chlorophenyl)cyclopropyl)-1,3,4-oxadiazole] | 22
CSc1c(-c2nnc(C3(C(F)(F)F)CC3)s2)nn(-c2ccc(Cl)cc2Cl)c1-c1ccc(Br)cc1 [Example 30, 2-(5-(4-bromophenyl)-1-(2,4-dichlorophenyl)-4-(methylthio)-1H-pyrazol-3-yl)-5-(1-(trifluoromethyl)cyclopropyl)-1,3,4-thiadiazole] | 14.8
CC(C)(C)c1nnc(-c2nn(-c3ccccc3Cl)c(-c3ccc(Br)cc3)c2S(C)(=O)=O)o1 [Example 92, 2-(5-(4-bromophenyl)-1-(2-chlorophenyl)-4-(methylsulfonyl)-1H-pyrazol-3-yl)-5-tert-butyl-1,3,4-oxadiazole] | 8.15
C[S+]([O-])c1c(-c2nnc(C3(C(F)(F)F)CCC3)s2)nn(-c2ccccc2Cl)c1-c1ccc(Cl)cc1 (stereo not shown) [Example 66, 2-(1-(2-chlorophenyl)-5-(4-chlorophenyl)-4-(methylsulfinyl)-1H-pyrazol-3-yl)-5-(1-(trifluoromethyl)cyclobutyl)-1,3,4-thiadiazole] | 3.4
C[S+]([O-])c1c(-c2nnc(C(C)(C)C)s2)nn(-c2ccc(Cl)cc2Cl)c1-c1ccc(Cl)cc1 (stereo not shown) [Example 60, 2-tert-butyl-5-(5-(4-chlorophenyl)-1-(2,4-dichlorophenyl)-4-(methylsulfinyl)-1H-pyrazol-3-yl)-1,3,4-thiadiazole] | 19.1
C[S+]([O-])c1c(-c2nnc(C3(C(F)(F)F)CCC3)s2)nn(-c2ccc(Cl)cc2Cl)c1-c1ccc(Cl)cc1 (stereo not shown) [Example 62, 2-(5-(4-chlorophenyl)-1-(2,4-dichlorophenyl)-4-(methylsulfinyl)-1H-pyrazol-3-yl)-5-(1-(trifluoromethyl)cyclobutyl)-1,3,4-thiadiazole] | 4.12
CC(C)(C)c1nnc(-c2nn(-c3ccccc3Cl)c(-c3ccc(Cl)cc3)c2S(C)(=O)=O)s1 [Example 104, 2-tert-butyl-5-(1-(2-chlorophenyl)-5-(4-chlorophenyl)-4-(methylsulfonyl)-1H-pyrazol-3-yl)-1,3,4-thiadiazole] | 7.18
C[S+]([O-])c1c(-c2nnc(C(C)(C)C)s2)nn(-c2ccccc2Cl)c1-c1ccc(Br)cc1 (stereo not shown) [Example 72, 2-(5-(4-bromophenyl)-1-(2-chlorophenyl)-4-(methylsulfinyl)-1H-pyrazol-3-yl)-5-tert-butyl-1,3,4-thiadiazole] | 7.97
